For series [1], the target named is T1, hERG potassium ion channel (Homo sapiens, UniProt Q12809).
T1 construct: expressed in transfected cells; host or cells: HEK293
Briefly: hERG Assay (Assay 4). In kind it is cell-based. The conditions noted are these: HEK293 cells stably transfected with hERG cDNA, pH 7.4, comparator compounds, Table 4, compound at 3 μM. As for the experimental part: Compounds of the invention were tested in vitro against the hERG (human ether-à-go-go-related gene) potassium ion channel (a surrogate for IKr, the rapidly activating delayed rectifier cardiac potassium ion channel).
The buffer was HEPES-buffered physiological saline (HB-PS) solution composed of: 137 mM NaCl, 4.0 mM KCl, 1.8 mM CaCl2, 1 mM MgCl2, 10 mM HEPES, 10 mM glucose, pH adjusted to 7.4 with NaOH, and 0.3% DMSO. Chemicals used in solution preparation were purchased from Sigma-Aldrich (St. Louis, Mo.), unless otherwise noted, and were of ACS reagent grade purity or higher.
HEK (human embryonic kidney) 293 cells were stably transfected with hERG cDNA.
For the patch clamp experiment, onset and steady state inhibition of hERG potassium current was measured using a pulse pattern with fixed amplitudes (depolarization: +20 mV for 2 s; repolarization: −50 mV for 2 s) repeated at 10 s intervals from a holding potential of −80 mV. Peak tail current was measured during the 2 s step to −50 mV. A steady state was maintained for at least 30 seconds before applying compound or positive control (cisapride). Peak tail currents were measured until a new steady state was achieved.
Data acquisition and analyses were performed using the suite of pCLAMP® (ver. 8.2) programs (MDS Analytical Technologies, Sunnyvale, Calif.). […]
(hERG is a cardiac potassium channel; its block is linked to QT prolongation.)

For series [2], the target named is T2, recombinant RORγ Ligand Binding Domain (LBD) protein (Homo sapiens, UniProt P51449).
T2 construct: 6×His; GST
T2 sequence (P51449 269-508 limits assumed): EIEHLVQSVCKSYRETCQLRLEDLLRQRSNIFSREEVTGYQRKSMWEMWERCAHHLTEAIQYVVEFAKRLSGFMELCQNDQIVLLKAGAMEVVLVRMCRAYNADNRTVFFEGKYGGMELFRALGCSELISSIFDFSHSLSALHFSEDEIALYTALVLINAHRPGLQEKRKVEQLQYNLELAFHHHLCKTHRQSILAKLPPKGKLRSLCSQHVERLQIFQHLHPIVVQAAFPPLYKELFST
Put plainly: Radio-Ligand RORγ Binding Assay (Assay 1). The conditions noted are these: cell-free competition with 25-hydroxy[26,27-3H]-cholesterol; read-out: RORγ Binding Ki Range* (nM) (Assay 1). Here is the method:
Radio-Ligand RORγ Binding Assay (Assay 1)
The plate was shaken at 700 rpm for 20 min and incubated for 10 min at rt, after which 40 μL of poly-Lys YSi SPA beads (PerkinElmer, Cat. # RPNQ0010) were added to achieve 50 μg of the beads per well. The plate was incubated on an orbital shaker for 20 min and then for 10 min without agitation at rt. SPA signal for tritium beta radiation was registered on PerkinElmer Microbeta plate reader.

Another series deals with IL-17A production. Briefly: Human Whole Blood Assay (Assay 3). In kind it is cell-based. As for the experimental part: Human Whole Blood Assay (Assay 3)
Compounds of the invention were tested in the human whole blood assay to measure their effects on IL-17A production as determined by cytokine secretion into 50% blood/media supernatant. Mixtures of sodium heparinized whole blood (isolated from healthy human donors) and the T cell activator CytoStim, in the presence or absence of compound, were plated in sterilized, tissue culture-treated 24-well plates. Specifically, the mixtures in each well were as follows: (1) 500 μL of whole blood, (2) 250 μL of compound diluted into RPMI-1640 media containing 10% HyClone™ FCS (Thermo Fisher Scientific, Waltham, Mass.), Gibco® Pen/Strep and Gibco® NEAA (Life Technologies, Grand Island, N.Y.), and (3) 250 μL of CytoStim (Miltenyi Biotech, Germany) diluted to a final concentration of 10 μL/mL in complete cell culture medium.
IL-17A cytokine expression was determined using 25 μL of the transferred supernatant diluted with 25 μL of Diluent 43 from the Human IL-17A V-PLEX™ kit (cat. # K151RFD-4, Meso Scale Discovery, Rockville, Md.). The assay was performed according to the manufacturer's instructions using included reagents. The IL-17A V-PLEX™ plates were read using the Meso Scale Discovery Imager (Model 1200).

Series [3] addresses T3, full-length RORγt in Jurkat cells (Homo sapiens, UniProt P51449).
T3 sequence (P51449 1-497 isoform P51449-2): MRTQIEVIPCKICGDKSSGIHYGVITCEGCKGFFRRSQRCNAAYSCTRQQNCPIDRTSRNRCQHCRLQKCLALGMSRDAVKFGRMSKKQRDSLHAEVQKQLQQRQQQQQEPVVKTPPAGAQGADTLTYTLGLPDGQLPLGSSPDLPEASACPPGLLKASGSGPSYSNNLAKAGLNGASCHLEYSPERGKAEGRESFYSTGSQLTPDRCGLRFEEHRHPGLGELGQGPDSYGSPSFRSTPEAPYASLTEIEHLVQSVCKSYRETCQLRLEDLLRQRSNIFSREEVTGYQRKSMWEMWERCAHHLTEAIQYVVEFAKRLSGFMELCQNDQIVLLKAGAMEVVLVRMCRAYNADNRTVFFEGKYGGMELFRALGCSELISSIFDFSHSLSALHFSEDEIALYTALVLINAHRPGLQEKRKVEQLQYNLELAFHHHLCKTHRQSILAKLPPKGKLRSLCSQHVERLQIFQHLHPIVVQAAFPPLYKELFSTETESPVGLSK
Description: ROR ? t 5×RORE Assay in Jurkat Cells (Assay 2)
Compounds of the present invention were tested for RORγ inverse agonist activity in a cell-based, transcriptional activity assay. […] Luciferase activity in the conditioned supernatants was determined with NanoGlo® assay reagents (Promega, Cat.# N1130).

[4] abbreviates: IL-17A, 50% blood/media, CytoStim, 48 h, read-out: 50% Human Whole Blood Assay IC50, nM* (Assay 3).

pIC50: −log10 of the molar value. Like-named read-outs stand apart in the source and are kept apart here. Bounds are passed on as bounds.

As usually defined, the inhibition is the change of the read-out against control, counted positive when it falls. Broadly, the Ki is the dissociation constant of the complex between target and ligand, obtained from inhibition or displacement. A word on the IC50: it is the concentration that inhibits the measured activity by half. By pIC50 is commonly meant −log10 of the IC50, conventionally taken in molar units.

T1 sequence (Q12809 whole entry): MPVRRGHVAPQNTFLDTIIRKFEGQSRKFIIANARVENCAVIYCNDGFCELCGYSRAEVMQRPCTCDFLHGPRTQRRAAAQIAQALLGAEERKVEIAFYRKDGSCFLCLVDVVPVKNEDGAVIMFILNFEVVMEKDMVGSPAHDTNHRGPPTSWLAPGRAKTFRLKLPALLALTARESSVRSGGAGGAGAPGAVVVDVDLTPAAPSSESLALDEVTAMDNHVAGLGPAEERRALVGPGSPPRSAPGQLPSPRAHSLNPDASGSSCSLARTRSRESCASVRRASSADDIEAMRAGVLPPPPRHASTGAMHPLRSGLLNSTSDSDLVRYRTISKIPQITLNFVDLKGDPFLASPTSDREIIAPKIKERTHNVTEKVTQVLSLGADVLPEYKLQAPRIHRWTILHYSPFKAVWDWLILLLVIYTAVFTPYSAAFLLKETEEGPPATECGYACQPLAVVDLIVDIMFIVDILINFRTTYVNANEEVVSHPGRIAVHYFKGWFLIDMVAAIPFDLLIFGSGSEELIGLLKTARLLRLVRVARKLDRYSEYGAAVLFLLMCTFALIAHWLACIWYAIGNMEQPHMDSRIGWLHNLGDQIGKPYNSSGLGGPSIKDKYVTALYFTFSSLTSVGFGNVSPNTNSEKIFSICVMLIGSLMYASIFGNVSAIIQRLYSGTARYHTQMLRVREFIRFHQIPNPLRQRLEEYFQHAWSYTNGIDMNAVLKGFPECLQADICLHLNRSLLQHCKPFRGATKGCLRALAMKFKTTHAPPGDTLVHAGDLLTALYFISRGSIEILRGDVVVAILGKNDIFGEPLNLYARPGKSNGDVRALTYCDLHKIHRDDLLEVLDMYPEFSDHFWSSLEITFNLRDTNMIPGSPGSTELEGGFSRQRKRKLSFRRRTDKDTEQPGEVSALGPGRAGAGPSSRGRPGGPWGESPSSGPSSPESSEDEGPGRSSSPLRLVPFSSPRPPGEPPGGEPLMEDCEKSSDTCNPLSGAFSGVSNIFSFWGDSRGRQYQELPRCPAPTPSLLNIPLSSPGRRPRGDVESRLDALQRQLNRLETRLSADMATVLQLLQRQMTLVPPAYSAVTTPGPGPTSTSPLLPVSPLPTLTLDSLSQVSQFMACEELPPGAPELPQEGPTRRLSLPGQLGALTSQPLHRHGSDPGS

Take `CCS(=O)(=O)c1ccc(CNC(=O)c2cnc3c(c2)CN(C[C@H]2CC[C@H](C(F)(F)F)CC2)[C@H]3C(C)C)cc1`: in series [1], testing at 3 µM gave an inhibition of 57%.
For the compound `CCS(=O)(=O)c1ccc([C@H](CO)NC(=O)c2cnc3c(c2)CN(C[C@@H]2CC[C@@H](C(F)(F)F)OC2)[C@H]3C(C)C)nc1` (single isomer, unassigned) [Compound 1], the inhibition constant Ki in series [2] is less than 100 nM. Further, in the series on IL-17A production (setting [4]), the IC50 is less than 100 nM.
Take `CCS(=O)(=O)c1ccc([C@H](CO)NC(=O)c2cnc3c(c2)CN(C[C@@H]2CC[C@@H](C(F)(F)F)OC2)[C@H]3C(C)C)cc1` (single isomer, unassigned) [Compound 2]: the Ki in series [2] was less than 100 nM. For the same compound, the IC50 in the series with IL-17A production (setting [4]) is less than 100 nM.
For the compound `CCS(=O)(=O)c1ccc([C@H](CO)NC(=O)c2cnc3c(c2)CN(C[C@H]2CC[C@H](C(F)(F)F)OC2)[C@H]3C(C)C)cc1` (single isomer, unassigned) [Compound 5], the Ki in series [2] is less than 100 nM. For the same compound, the IC50 in the series with IL-17A production (setting [4]) was less than 100 nM. For the same compound, the pIC50 in series [3] was more than 7.00.
For `CC[C@H]1c2ncc(C(=O)N[C@@H](CO)c3ccc(S(=O)(=O)CC)cc3)cc2CN1C[C@H]1CC[C@H](C(F)(F)F)OC1` (single isomer, unassigned) [Compound 10], the Ki in series [2] was less than 100 nM. The IC50 in the series on IL-17A production (setting [4]) was less than 100 nM.
In the case of `CCS(=O)(=O)c1ccc([C@H](CO)NC(=O)c2cnc3c(c2)CN(C[C@@H]2CC[C@@H](C(F)(F)F)CO2)[C@H]3C(C)C)cc1` (single isomer, unassigned) [Compound 14], the inhibition constant Ki in series [2] is less than 100 nM. For the same compound, in the series on IL-17A production (setting [4]), the IC50 was less than 100 nM.
As for `CCS(=O)(=O)c1ccc([C@H](NC(=O)c2cnc3c(c2)CN(C[C@H]2CC[C@H](C(F)(F)F)CC2)[C@H]3C(C)C)[C@H](C)O)cc1` (single isomer, unassigned) [Compound 39], in series [2], the Ki was less than 100 nM. Also, in the series with IL-17A production (setting [4]), the IC50 was in the range of 100 to 200 nM.
As for `CCS(=O)(=O)c1ccc([C@@H](NC(=O)c2cnc3c(c2)CN(C[C@H]2CC[C@H](C(F)(F)F)CC2)[C@H]3C(C)C)[C@@H](C)O)cc1` (single isomer, unassigned) [Compound 42], the Ki in series [2] is less than 100 nM. In the series on IL-17A production (setting [4]), the concentration for half-maximal inhibition (IC50) is more than 200 nM.
Take `CC[C@H]1c2ncc(C(=O)N[C@@H](CO)c3ccc(S(=O)(=O)CC)cc3)cc2CN1C[C@H]1CC[C@H](C(F)(F)F)CC1` [Compound 41, (S)-7-ethyl-N—((R)-1-(4-(ethylsulfonyl)phenyl)-2-hydroxyethyl)-6-((trans-4-(trifluoromethyl)cyclohexyl)methyl)-6,7-dihydro-5H-pyrrolo[3,4-b]pyridine-3-carboxamide]: in the series with IL-17A production (setting [4]), the concentration for half-maximal inhibition (IC50) was less than 100 nM.
As to `CCS(=O)(=O)c1ccc([C@@H](CO)NC(=O)c2cnc3c(c2)CN(C[C@H]2CC[C@H](C(F)(F)F)CC2)[C@H]3C(C)C)nc1` [Compound 44], in the series on IL-17A production (setting [4]), the IC50 is more than 200 nM.
As to `CCS(=O)(=O)c1ccc([C@H](CO)NC(=O)c2cnc3c(c2)CN(C[C@H]2CC[C@H](C(F)(F)F)CC2)[C@H]3C(C)C)nc1` [Compound 45], the IC50 in the series on IL-17A production (setting [4]) is more than 200 nM.
For `CCS(=O)(=O)c1ccc([C@H](CO)NC(=O)c2cnc3c(c2)CN(C[C@H]2CC[C@H](C(F)(F)F)CC2)[C@H]3C(C)C)cc1` [Compound 46, (S)—N—((R)-1-(4-(ethylsulfonyl)phenyl)-2-hydroxyethyl)-7-isopropyl-6-((trans-4-(trifluoromethyl)cyclohexyl)methyl)-6,7-dihydro-5H-pyrrolo[3,4-b]pyridine-3-carboxamide], in series [2], the inhibitory constant (Ki) is less than 100 nM. Also, the 50% inhibitory concentration (IC50) with IL-17A production (setting [4]) is less than 100 nM. This compound showed a pIC50 in series [3] of more than 7.00.
As for `CCS(=O)(=O)c1ccc([C@@H](CO)NC(=O)c2cnc3c(c2)CN(C[C@H]2CC[C@H](C(F)(F)F)CC2)[C@H]3C(C)C)cc1` [Compound 47], the inhibitory constant (Ki) in series [2] is less than 100 nM. For the same compound, in the series on IL-17A production (setting [4]), the concentration for half-maximal inhibition (IC50) is more than 200 nM. Moreover, the pIC50 in series [3] is more than 7.00.
Consider `CCS(=O)(=O)c1ccc(CNC(=O)c2cnc3c(c2)CN(C[C@H]2CC[C@H](C(F)(F)F)CC2)[C@H]3C(C)C)nc1` [reference compound], for which the concentration for half-maximal inhibition (IC50) with IL-17A production (comparator compounds, Table 4, IL-17A, read-out: 50% Human Whole Blood Assay IC50, nM^B (Assay 3)) is more than 200 nM. The compound also registered an inhibition at 3 µM in series [1] of 45.4%.

(Values after patent US9481674B1, “Dihydropyrrolopyridine inhibitors of ROR-gamma” (Vitae Pharmaceuticals, Inc., priority 2016, dated 2016).)
